{"source": "patent US20020137929A1", "about": "“1 - (3-heterocyclylphenyl) isothiourea, -isourea, -guanidine and -amidine herbicidal agents” (Intellectual Property Department, BASF Aktiengesellschaft, priority 1998, published 2002)", "key": {"[1]": {"tested_on": "GALAP (Galium)", "assay": "Postemergence herbicidal evaluation", "format": "in vivo, Galium aparine", "conditions": "postemergence", "method_in_brief": "(§1)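 First, seedlings were raised for around two weeks. Next, test material in 50/50 acetone/water containing 0.5% TWEEN 20 was sprayed through a nozzle at 40 psi, equivalent to about 0.0156–0.500 kg/ha. Finally, after 4–5 weeks in the greenhouse, plants were rated 0–9.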"}, "[2]": {"tested_on": "TRZAWR (Wheat, Winter, cv Riband)", "assay": "Preemergence herbicidal evaluation", "format": "in vivo, Triticum aestivum", "conditions": "preemergence, rated 4-5 weeks after treatment, 0-9 scale", "method_in_brief": "(§2)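 Greenhouse preemergence test: seed-soil mix sown on ~1 inch soil; aqueous acetone spray at equivalent of ~0.0156–0.500 kg/ha; greenhouse-held and watered; scored 0–9 visually at 4–5 weeks.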"}, "[3]": {"tested_on": "CYPIR (Rice Flatsedge)", "assay": "Postemergence weed control under flooded paddy conditions", "format": "in vivo, Cyperus iria", "conditions": "postemergence weeds, rated 3 to 4 weeks after treatment", "method_in_brief": "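Containers holding 3–5 cm weeds and rice at 1.5–2.5 leaves are flooded to 1.5–3 cm above soil. Compound in 50/50 v/v aqueous/acetone is then added directly to the water, about 0.0313–0.500 kg/ha. Plants are kept in the greenhouse and rated 0–9 visually at 3–4 weeks.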"}, "[4]": {"tested_on": "SAGPY (Arrowhead (Pygmaea))", "assay": "Preemergence weed control under flooded paddy conditions", "format": "in vivo, Sagittaria pygmaea", "conditions": "rated 3-4 weeks after treatment", "method_in_brief": "(§3)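 Visual injury scored 0-9 against control three to four weeks post-treatment, greenhouse-grown. Application: acetone/water (50/50) solutions dosed directly into flood water (1.5-3 cm over silt loam, planted top 0.5 cm), roughly 0.0313 to 0.500 kg/ha active ingredient.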"}, "[5]": {"tested_on": "ZEAMX (Corn, Field)", "assay": "Preemergence herbicidal evaluation", "format": "in vivo, Zea mays", "conditions": "preemergence, rated 4-5 weeks after treatment, 0-9 scale", "method_in_brief": "as §2"}, "[6]": {"tested_on": "ECHCG (Barnyardgrass)", "assay": "Preemergence herbicidal evaluation", "format": "in vivo, Echinochloa crus-galli", "conditions": "preemergence, rated 4-5 weeks after treatment, 0-9 scale", "method_in_brief": "as §2"}, "[7]": {"tested_on": "AMBEL (Ragweed, Common)", "assay": "Postemergence herbicidal evaluation", "format": "in vivo, Ambrosia artemisifolia", "conditions": "postemergence", "method_in_brief": "as §1"}, "[8]": {"tested_on": "GLXMAW (Soybean, Williams)", "assay": "Preemergence herbicidal evaluation", "format": "in vivo, Glycine max, (L.) Merr. cv Williams", "conditions": "preemergence, rated 4-5 weeks after treatment, 0-9 scale", "method_in_brief": "as §2"}, "[9]": {"tested_on": "MOOVA (Monochoria)", "assay": "Preemergence weed control under flooded paddy conditions", "format": "in vivo, Monochoria vaginalis", "conditions": "rated 3-4 weeks after treatment", "method_in_brief": "as §3"}, "[10]": {"tested_on": "CASOB (Sicklepod)", "assay": "Preemergence herbicidal evaluation", "format": "in vivo, Cassia obtusifolia", "conditions": "preemergence, rated 4-5 weeks after treatment, 0-9 scale", "method_in_brief": "as §2"}, "[11]": {"tested_on": "ABUTH (Velvetleaf)", "assay": "Preemergence herbicidal evaluation", "format": "in vivo, Abutilon theophrasti", "conditions": "preemergence, rated 4-5 weeks after treatment, 0-9 scale", "method_in_brief": "as §2"}, "[12]": {"tested_on": "CASOB (Sicklepod)", "assay": "Postemergence herbicidal evaluation", "format": "in vivo, Cassia obtusifolia", "conditions": "postemergence", "method_in_brief": "as §1"}, "[13]": {"tested_on": "IPOHE (Morningglory, Ivyleaf)", "assay": "Postemergence herbicidal evaluation", "format": "in vivo, Ipomoea hederacea", "conditions": "postemergence", "method_in_brief": "as §1"}, "[14]": {"tested_on": "IPOHE (Morningglory, Ivyleaf)", "assay": "Preemergence herbicidal evaluation", "format": "in vivo, Ipomoea hederacea", "conditions": "preemergence, rated 4-5 weeks after treatment, 0-9 scale", "method_in_brief": "as §2"}}, "data": [{"smiles": "CC(C)OC(=O)CC1SC(=Nc2cc(-n3c(=O)cc(C(F)(F)F)n(C)c3=O)c(F)cc2Cl)N(C)C1=O", "note": "(stereo not shown) [Compound 89, Isopropyl 2-{{2-chloro-5-[3,6-dihydro-3-methyl-2,6-dioxo-4-(trifluoromethyl)-1(2H)-pyrimidinyl]-4-fluorophenyl}imino}-3-methyl-4-oxo-5-thiazolidineacetate]", "values": [{"measurement": "GALAP herbicidal rating", "setting": "[1]; rate 0.0158 kg/ha", "result": 3.0}, {"measurement": "GALAP herbicidal rating", "setting": "[1]; rate 0.0313 kg/ha", "result": 4.0}, {"measurement": "GALAP herbicidal rating", "setting": "[1]; rate 0.0625 kg/ha", "result": 5.0}, {"measurement": "GALAP herbicidal rating", "setting": "[1]; rate 0.1250 kg/ha", "result": 9.0}, {"measurement": "TRZAWR rating", "setting": "[2]; 0.0156 kg/ha", "result": 0.0}, {"measurement": "TRZAWR rating", "setting": "[2]; 0.0313 kg/ha", "result": 0.0}, {"measurement": "TRZAWR rating", "setting": "[2]; 0.0625 kg/ha", "result": 0.5}, {"measurement": "TRZAWR rating", "setting": "[2]; 0.1250 kg/ha", "result": 2.0}, {"measurement": "TRZAWR rating", "setting": "[2]; 0.2500 kg/ha", "result": 6.5}, {"measurement": "TRZAWR rating", "setting": "[2]; 0.5000 kg/ha", "result": 9.0}, {"measurement": "Herbicidal rating CYPIR", "setting": "[3]; Rate 0.0313 kg/ha", "result": 0.0}, {"measurement": "Herbicidal rating CYPIR", "setting": "[3]; Rate 0.0625 kg/ha", "result": 0.0}, {"measurement": "Herbicidal rating CYPIR", "setting": "[3]; Rate 0.1250 kg/ha", "result": 2.0}, {"measurement": "Herbicidal rating CYPIR", "setting": "[3]; Rate 0.2500 kg/ha", "result": 4.0}, {"measurement": "SAGPY herbicidal effect rating", "setting": "[4]; 0.0313 kg/ha", "result": 4.0}, {"measurement": "SAGPY herbicidal effect rating", "setting": "[4]; 0.0625 kg/ha", "result": 5.0}, {"measurement": "SAGPY herbicidal effect rating", "setting": "[4]; 0.1250 kg/ha", "result": 9.0}, {"measurement": "SAGPY herbicidal effect rating", "setting": "[4]; 0.2500 kg/ha", "result": 9.0}, {"measurement": "ZEAMX rating", "setting": "[5]; 0.0156 kg/ha", "result": 0.0}, {"measurement": "ZEAMX rating", "setting": "[5]; 0.0313 kg/ha", "result": 0.0}, {"measurement": "ZEAMX rating", "setting": "[5]; 0.0625 kg/ha", "result": 1.0}, {"measurement": "ZEAMX rating", "setting": "[5]; 0.1250 kg/ha", "result": 6.5}, {"measurement": "ZEAMX rating", "setting": "[5]; 0.2500 kg/ha", "result": 7.5}, {"measurement": "ZEAMX rating", "setting": "[5]; 0.5000 kg/ha", "result": 9.0}, {"measurement": "ECHCG rating", "setting": "[6]; 0.0156 kg/ha", "result": 0.0}, {"measurement": "ECHCG rating", "setting": "[6]; 0.0313 kg/ha", "result": 0.0}, {"measurement": "ECHCG rating", "setting": "[6]; 0.0625 kg/ha", "result": 0.0}, {"measurement": "ECHCG rating", "setting": "[6]; 0.1250 kg/ha", "result": 2.0}, {"measurement": "ECHCG rating", "setting": "[6]; 0.2500 kg/ha", "result": 5.5}, {"measurement": "ECHCG rating", "setting": "[6]; 0.5000 kg/ha", "result": 9.0}, {"measurement": "AMBEL herbicidal rating", "setting": "[7]; rate 0.0158 kg/ha", "result": 4.0}, {"measurement": "AMBEL herbicidal rating", "setting": "[7]; rate 0.0313 kg/ha", "result": 9.0}, {"measurement": "AMBEL herbicidal rating", "setting": "[7]; rate 0.0625 kg/ha", "result": 9.0}, {"measurement": "AMBEL herbicidal rating", "setting": "[7]; rate 0.1250 kg/ha", "result": 9.0}, {"measurement": "GLXMAW rating", "setting": "[8]; 0.0156 kg/ha", "result": 0.0}, {"measurement": "GLXMAW rating", "setting": "[8]; 0.0313 kg/ha", "result": 0.0}, {"measurement": "GLXMAW rating", "setting": "[8]; 0.0625 kg/ha", "result": 1.0}, {"measurement": "GLXMAW rating", "setting": "[8]; 0.1250 kg/ha", "result": 2.0}, {"measurement": "GLXMAW rating", "setting": "[8]; 0.2500 kg/ha", "result": 8.5}, {"measurement": "GLXMAW rating", "setting": "[8]; 0.5000 kg/ha", "result": 9.0}, {"measurement": "MOOVA herbicidal effect rating", "setting": "[9]; 0.0313 kg/ha", "result": 9.0}, {"measurement": "MOOVA herbicidal effect rating", "setting": "[9]; 0.0625 kg/ha", "result": 9.0}, {"measurement": "MOOVA herbicidal effect rating", "setting": "[9]; 0.1250 kg/ha", "result": 9.0}, {"measurement": "MOOVA herbicidal effect rating", "setting": "[9]; 0.2500 kg/ha", "result": 9.0}, {"measurement": "CASOB rating", "setting": "[10]; 0.0156 kg/ha", "result": 0.0}, {"measurement": "CASOB rating", "setting": "[10]; 0.0313 kg/ha", "result": 0.0}, {"measurement": "CASOB rating", "setting": "[10]; 0.0625 kg/ha", "result": 0.0}, {"measurement": "CASOB rating", "setting": "[10]; 0.1250 kg/ha", "result": 3.0}, {"measurement": "CASOB rating", "setting": "[10]; 0.2500 kg/ha", "result": 6.0}, {"measurement": "CASOB rating", "setting": "[10]; 0.5000 kg/ha", "result": 9.0}, {"measurement": "ABUTH rating", "setting": "[11]; 0.0156 kg/ha", "result": 1.5}, {"measurement": "ABUTH rating", "setting": "[11]; 0.0313 kg/ha", "result": 6.5}, {"measurement": "ABUTH rating", "setting": "[11]; 0.0625 kg/ha", "result": 9.0}, {"measurement": "ABUTH rating", "setting": "[11]; 0.1250 kg/ha", "result": 9.0}, {"measurement": "ABUTH rating", "setting": "[11]; 0.2500 kg/ha", "result": 9.0}, {"measurement": "ABUTH rating", "setting": "[11]; 0.5000 kg/ha", "result": 9.0}, {"measurement": "CASOB herbicidal rating", "setting": "[12]; rate 0.0158 kg/ha", "result": 0.0}, {"measurement": "CASOB herbicidal rating", "setting": "[12]; rate 0.0313 kg/ha", "result": 6.0}, {"measurement": "CASOB herbicidal rating", "setting": "[12]; rate 0.0625 kg/ha", "result": 9.0}, {"measurement": "CASOB herbicidal rating", "setting": "[12]; rate 0.1250 kg/ha", "result": 9.0}, {"measurement": "IPOHE herbicidal rating", "setting": "[13]; rate 0.0158 kg/ha", "result": 9.0}, {"measurement": "IPOHE herbicidal rating", "setting": "[13]; rate 0.0313 kg/ha", "result": 9.0}, {"measurement": "IPOHE herbicidal rating", "setting": "[13]; rate 0.0625 kg/ha", "result": 9.0}, {"measurement": "IPOHE herbicidal rating", "setting": "[13]; rate 0.1250 kg/ha", "result": 9.0}, {"measurement": "IPOHE rating", "setting": "[14]; 0.0156 kg/ha", "result": 0.0}, {"measurement": "IPOHE rating", "setting": "[14]; 0.0313 kg/ha", "result": 0.0}, {"measurement": "IPOHE rating", "setting": "[14]; 0.0625 kg/ha", "result": 0.5}, {"measurement": "IPOHE rating", "setting": "[14]; 0.1250 kg/ha", "result": 1.5}, {"measurement": "IPOHE rating", "setting": "[14]; 0.2500 kg/ha", "result": 9.0}, {"measurement": "IPOHE rating", "setting": "[14]; 0.5000 kg/ha", "result": 9.0}]}]}
